Test results taken from paper PMC8080777, “Discovery, optimization, and evaluation of non-bile acid FXR/TGR5 dual agonists” (Scientific Reports, 2021).
“Also recorded” adds a separate entry of the source.

How the values were obtained:
FXR = biological target: T1, FXR (Homo sapiens, UniProt Q96RI1); assay: CHO cell-based FXR luciferase reporter assay (Indigo Biosciences)
T1 construct: host or cells: CHO cells
T1 sequence (Q96RI1 1-486): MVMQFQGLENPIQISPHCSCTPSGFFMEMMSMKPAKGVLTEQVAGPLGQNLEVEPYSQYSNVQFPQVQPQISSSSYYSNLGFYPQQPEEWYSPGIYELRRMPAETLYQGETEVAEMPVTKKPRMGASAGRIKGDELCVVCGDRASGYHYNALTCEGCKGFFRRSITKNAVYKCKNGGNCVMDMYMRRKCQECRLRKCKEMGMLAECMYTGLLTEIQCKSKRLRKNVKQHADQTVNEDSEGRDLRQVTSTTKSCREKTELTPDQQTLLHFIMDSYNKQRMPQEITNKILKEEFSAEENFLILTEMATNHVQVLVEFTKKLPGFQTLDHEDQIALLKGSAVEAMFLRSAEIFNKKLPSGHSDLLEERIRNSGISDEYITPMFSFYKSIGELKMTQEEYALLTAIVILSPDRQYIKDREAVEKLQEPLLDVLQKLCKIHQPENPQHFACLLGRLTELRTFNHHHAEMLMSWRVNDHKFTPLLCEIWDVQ
Experimental: To evaluate direct agonist activities against FXR, test compounds were evaluated using a CHO cell-based FXR assay by Indigo Biosciences (State College, PA), in which cells were transfected with an FXR luciferase reporter system.
To directly evaluate the in vitro agonist activity towards FXR, test compounds were evaluated in CHO cells transfected with FXR responsive luciferase reporter (Nuclear Receptor & In Vitro Toxicology Solutions, Indigo Biosciences, State College, PA, USA). […] Each compound was tested in duplicate, and the average value was reported[35],[36].
(§1) The cell recovery medium (CRM, Human Farnesoid X Receptor (NR1H4, FXR reporter assay system, Indigo Biosciences, State College, PA, USA) and compound screening medium (CSM, Human Farnesoid X Receptor (NR1H4, FXR reporter assay system, Indigo Biosciences, State College, PA, USA) were removed from the freezer and thawed in a water bath at 37 °C. Test compounds were dissolved in dimethyl sulfoxide (DMSO, FUJIFILM Wako Pure Chemical Corporation, Osaka city, Osaka, Japan), and the treatment medium was prepared and diluted with CSM to achieve a final concentration of 0.2% total DMSO. The reporter cells were thawed by transferring 3.3 mL CRM at 37 °C into tubes of frozen cells. The tube containing reporter cells was recapped, and it was immediately place in a 37 °C water bath for 5 min. The reporter cells were gently inverted several times, and 100 µL cell suspension was dispensed into each well. One hundred microliters of treatment media was added into wells. Subsequently, the assay plate was kept at 37 °C, and it was incubated with 5% CO2 for 22 h. To prepare luciferase detection reagent (LDR), the detection substrate was gently mixed with detection buffer, media contents were removed from each well, and 100 µL LDR was added to each well of the assay plate. The assay plate was allowed to rest at room temperature for 5 min, and luminescence was quantified using the Multi-Mode Microplate Reader (FlexStation 3, Molecular Devices Inc., San Jose, CA, USA)[36].
S4. In vitro, in vivo assay, and selectvity.
To directly evaluate the in vitro agonist activity towards FXR, test compounds were evaluated in CHO cells transfected with FXR responsive luciferase reporter (Nuclear Receptor & In Vitro Toxicology Solutions, Indigo Biosciences, State College, PA, USA). Cells were incubated with […]
(FlexStation 3, Molecular Devices Inc., San Jose, CA, USA). Efficacies are reported relative to […]
reporter on of 1 µM. Each compound was tested in duplicate, and the average value was […]
as §1, with “sulfoxide (DMSO ,” for “sulfoxide (DMSO,”, “Osaka, Jap an),” for “Osaka, Japan),”, “a 37°C” for “a 37 °C”, “5% CO 2” for “5% CO2”, “using […]” for “using the Multi-Mode Microplate Reader (FlexStation 3, Molecular Devices Inc., San Jose, CA, USA)[36].”

TGR5 = biological target: T2, TGR5 (Homo sapiens, UniProt Q8TDU6); assay: TGR5 cAMP assay in CHO cells transfected with TGR5 (cAMP Hunter eXpress, Discover X); format: cell-based; settings: for TGR5 Efficacy (%) (1 µM) / TGR5 Efficacy (%) (10 µM): % vs INT-767 10 µM as 100%
T2 construct: host or cells: CHO cells
T2 sequence (Q8TDU6 1-330): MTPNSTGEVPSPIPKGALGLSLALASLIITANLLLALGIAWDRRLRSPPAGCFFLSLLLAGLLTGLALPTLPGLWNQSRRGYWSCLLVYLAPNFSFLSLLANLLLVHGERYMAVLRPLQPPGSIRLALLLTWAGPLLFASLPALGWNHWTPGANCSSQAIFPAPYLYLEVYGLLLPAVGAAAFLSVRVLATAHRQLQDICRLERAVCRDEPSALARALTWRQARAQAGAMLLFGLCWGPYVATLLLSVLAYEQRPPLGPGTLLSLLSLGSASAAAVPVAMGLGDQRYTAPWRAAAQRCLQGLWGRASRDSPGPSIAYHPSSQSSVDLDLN
Experimental: TGR5 agonist activity was evaluated by transfecting CHO cells with TGR5 using the Discover X expression kit (cAMP Hunter eXpress GPCR Assay, Discover X Fremont, CA). Cells were incubated with test compounds for 0.5 h, and intracellular cAMP levels were measured using the multi-mode microplate reader.
(§2) TGR5 agonist activity was evaluated by transfecting CHO cells with TGR5 using the Discover X expression kit (cAMP Hunter eXpress Assay Kit, Discover X Fremont, CA, USA). Cells were incubated with the test compounds for 0.5 h, and intracellular cAMP levels were measured using Multi-Mode Microplate Reader (FlexStation 3, Molecular Devices Inc., San Jose, CA, USA).
Each compound was tested at concentrations of 10, 1, or 0.1 µM in duplicate (n = 2), with the average value shown.
S4. In vitro, in vivo assay, and selectvity. […]
In vitro TGR5 agonist assay protocol
as §2
Each compound was tested at concentrations of 10, 1, or 0.1 µM in duplicate (n=2), with the […]
parameter logistic equation, Y = min + (max - min)/(1 + 10^(n * (log10(EC50) - log10(conc)))), in […]

Compound	FXR Efficacy (%) (0.1 µM) (FXR; % vs OCA 1 µM as 100%)	FXR Efficacy (%) (1 µM) (FXR; % vs OCA 1 µM as 100%)	TGR5 Efficacy (%) (1 µM) (TGR5)	TGR5 Efficacy (%) (10 µM) (TGR5)	FXR agonist activity (in words) (FXR)	TGR5 agonist activity (in words) (TGR5)	FXR Efficacy (%) (10 µM) (FXR; 10 µM, % vs OCA 1 µM as 100%)
COc1ncc(C23CCC(CN(C(=O)c4ccncc4C)c4cc(Cl)cc(Cl)c4)(CC2)CC3)cc1C [Compound 20u]	69.2	76.2	12.1	–	–	–	–
COc1ccc(C23CCC(CN(C(=O)c4ccncc4C)c4cc(F)cc(Cl)c4)(CC2)CC3)cc1C [Compound 20i]	62.6	89.2	–	62.1	–	–	–
CN(C)c1ccc(-c2ccc(CN(C(=O)c3ccncc3Br)c3cc(Cl)cc(Cl)c3)cc2)cc1 [Compound 13y]	–	51.6	–	-2.0	–	–	–
COc1cnccc1C(=O)N(Cc1ccc(-c2ccc(N(C)C)cc2)cc1)c1cc(Cl)cc(Cl)c1 [Compound 13aa]	–	68.6	–	21.5	weak dual agonist activity	weak dual agonist activity	–
COc1ccc(C23CCC(CN(C(=O)c4ccncc4C)c4cc(Cl)cc(Cl)c4)(CC2)CC3)cc1Cl [Compound 20v]	65.4	79.6	33.5	–	–	–	–
Cc1cnccc1C(=O)N(Cc1ccc(-c2ccc(N(C)C)cc2)cc1)c1cc(Cl)ccc1Cl [Compound 13q]	–	1.5	–	75.2	–	good potency against TGR5	–
Cc1cnccc1C(=O)N(Cc1ccc(-c2ccc(N(C)C)cc2)cc1)c1ccc(F)cc1C [Compound 13e]	–	2.0	–	87.5	–	strong TGR5 agonist activity	–
Cc1cccc([C@H]2CC[C@H](CN(C(=O)c3ccncc3C)c3cc(Cl)cc(Cl)c3)CC2)c1 [Compound 20c]	–	51.7	–	5.7	–	–	–
COC(=O)/C=C/c1cccc(N(Cc2ccc(-c3ccc(N(C)C)cc3)cc2)C(=O)c2cccnc2)c1 [Compound 13c]	–	–	–	1.7	–	–	68.1
Cc1cnccc1C(=O)N(Cc1ccc(-c2ccc(N(C)C)cc2)cc1)c1cc(Cl)ccc1C [Compound 13p]	–	1.9	–	93.4	–	good potency against TGR5	–
Cc1cnccc1C(=O)N(CC12CCC(c3ccc4c(c3)OCCO4)(CC1)CC2)c1cc(Cl)cc(Cl)c1 [Compound 20r]	28.0	72.6	57.1	–	–	most potent TGR5 activity	–
CN(C)c1ccc(-c2ccc(CN(C(=O)c3ccnnc3)c3cc(Cl)cc(Cl)c3)cc2)cc1 [Compound 13ab]	–	0.5	–	-12	did not have any activity against either FXR or TGR5	did not have any activity against either FXR or TGR5	–
Cc1cnccc1C(=O)N(Cc1ccc(-c2ccc(N(C)C)cc2)cc1)c1cc(Cl)cc(Cl)c1 [Compound 13j]	–	62.1	–	59.7	potent FXR/TGR5 dual agonist activity; also recorded: dual potencies against both FXR and TGR5	potent FXR/TGR5 dual agonist activity; also recorded: dual potencies against both FXR and TGR5	–
Cc1cnccc1C(=O)N(Cc1ccc(-c2ccccc2)cc1)c1cc(Cl)cc(Cl)c1 [Compound 13ah]	–	17.7	–	118.6	–	TGR5 full agonist	–
COC(=O)/C=C/c1cccc(N(Cc2ccc(-c3ccc(N(C)C)cc3)cc2)C(=O)c2ccncc2C)c1F [Compound 13u]	–	90.3	–	-2.5	strong FXR agonist activities	–	–
Cc1cnccc1C(=O)N(CC12CCC(c3ccc4c(c3)CCO4)(CC1)CC2)c1cc(Cl)cc(Cl)c1 [Compound 20m]	58.5	91.5	–	72.4	–	–	–
